Assay [1] concerns S. aureus A15092. The experiment in a line: MIC against selected test organisms (Table 2). Format: cell-based. Conditions: Staphylococcus aureus, Gp-Ib, PC-R, read-out: Minimum Inhibitory Concentration.
The subject of assay [2] is H. influenzae(AMP-R). The experiment in a line: In vitro activity against species of Streptococcus, Neisseria and Haemophilus (Table 3). Format: cell-based. The conditions noted are these: Haemophilus influenzae, read-out: Geometric Mean of MIC.
The test system of assay [3] is B. fragilis A22695. The assay can be described thus: MIC against selected test organisms (Table 2). Format: cell-based. The conditions noted are these: Bacteroides fragilis.
In assay [4] the test system is S. aureus Smith. The assay can be described thus: MIC against selected test organisms (Table 2). The conditions noted are these: Staphylococcus aureus; Gp-Ia, PC-S; read-out: Minimum Inhibitory Concentration. Format: cell-based.
Assay [5] deals with Penicillin-sensitive S. aureus (Gp-Ia). The assay can be described thus: In vitro antibacterial activity, two-fold agar dilution, Mueller-Hinton agar (Table 1), group Gp-Ia. Format: cell-based. Conditions: Staphylococcus aureus; read-out: Geometric Mean of MIC. (In general: In agar dilution the substance is mixed into plates at graded concentrations.)
The subject of assay [6] is P. aeruginosa A20717. The experiment in a line: MIC against selected test organisms (Table 2). Format: cell-based. The conditions noted are these: Pseudomonas aeruginosa.
For assay [7], the system named is S. aureus BX-1633. The experiment in a line: MIC against selected test organisms (Table 2). The format is cell-based. Conditions: Staphylococcus aureus, BX1633, read-out: Minimum Inhibitory Concentration.
The subject of assay [8] is P. aeruginosa A15150. The experiment in a line: MIC against selected test organisms (Table 2). Conditions: Pseudomonas aeruginosa. Format: cell-based.
The test system of assay [9] is E. cloacae A9656. The experiment in a line: MIC against selected test organisms (Table 2). The format is cell-based. Conditions: Enterobacter cloacae, Gn-II, CET-R, read-out: Minimum Inhibitory Concentration.
For assay [10], the system named is Pr. morganii, Ent. cloacae and Ser. marcescens (Gn-II). The assay can be described thus: In vitro antibacterial activity, two-fold agar dilution, Mueller-Hinton agar (Table 1), group Gn-II. Format: cell-based, Pr. morganii (1), Ent. cloacae (2) and Ser. marcescens (2). Conditions: read-out: Geometric Mean of MIC.
Assay [11] has as its system S. aureus A9497. The assay can be described thus: MIC against selected test organisms (Table 2). The format is cell-based. Conditions: Staphylococcus aureus, Gp-Ia, PC-S, read-out: Minimum Inhibitory Concentration.
For assay [12], the system named is P. mirabilis A9554. The assay can be described thus: MIC against selected test organisms (Table 2). The format is cell-based. The conditions noted are these: Proteus mirabilis.
The subject of assay [13] is K. pneumoniae A 9867. The experiment in a line: MIC against selected test organisms (Table 2). Conditions: Klebsiella pneumoniae. The format is cell-based.
For assay [14], the system named is B. fragilis A20928-1. The experiment in a line: MIC against selected test organisms (Table 2). Format: cell-based. The conditions noted are these: Bacteroides fragilis.
Assay [15] deals with B. fragilis Group I. The assay can be described thus: In vitro antianaerobic activity in GAM agar (Table 4). Format: cell-based. The conditions noted are these: Bacteroides fragilis, read-out: Geometric Mean of MIC, GAM agar, nonlactamase-producing, ampicillin-sensitive, 3 strains.
For assay [16], the system named is B. fragilis Group III. Described as above. Format: cell-based. The conditions noted are these: read-out: Geometric Mean of MIC, GAM agar, lactamase-producing, highly ampicillin-resistant, 2 strains.
For assay [17], the system named is B. fragilis Group II. Described as above. Format: cell-based. The conditions noted are these: Bacteroides fragilis, read-out: Geometric Mean of MIC, GAM agar, lactamase-producing, moderately ampicillin-resistant, 3 strains.
The test system of assay [18] is Others Group IV (C. difficile, C. perfringens, P. acne and P. anaerobius). The experiment in a line: microbe, parasite or virus in culture. The format is cell-based. The conditions noted are these: read-out: Geometric Mean of MIC, GAM agar, 1 strain each.
Where [19] appears, read: Example 4, ceftazidime (mean of 3 experiments).
[20] abbreviates: Example 5 ceftazidime (mean of 2 experiments).

Results on two compounds are retold here after patent US4394503A, “Cephalosporin derivatives” (priority 1981, dated 1983).

Values after ≈ are worked out from the molar mass of the structure shown. Like-named read-outs stand apart in the source and are kept apart here.

On to `CSc1cc[n+](CC2=C(C(=O)[O-])N3C(=O)C(NC(=O)/C(=N\OC(C)(C)C(=O)O)c4csc(N)n4)C3SC2)cc1` (stereo not drawn) [Example 2, 7-[(Z)-2-(2-Aminothiazol-4-yl)-2-(2-carboxyprop-2-oxyimino)-acetamido]-3-[(4-methylthiopyridinium)methyl]-3-cephem-4-carboxylate], for which the MIC in assay [1] was 6.3 µg/mL (≈ 10.6 µM); in assay [2] (AMP-R, 3 strains), 0.4 µg/mL (≈ 0.675 µM); in assay [3] (A22695, Anaerobe, AMP-R, read-out: Minimum Inhibitory Concentration), 50 µg/mL (≈ 84.4 µM); in assay [4], 6.3 µg/mL (≈ 10.6 µM); in assay [5], 4.7 µg/mL (≈ 7.93 µM); in assay [6] (A20717, Gn-III, CET-R, read-out: Minimum Inhibitory Concentration) it was 6.3 µg/mL (≈ 10.6 µM). Moreover, the MIC in [7] was 6.3 µg/mL (≈ 10.6 µM); in [8] (A15150, Gn-III, CET-R, read-out: Minimum Inhibitory Concentration), 1.6 µg/mL (≈ 2.7 µM); in assay [9] it was 0.2 µg/mL (≈ 0.337 µM); in assay [10], 1.5 µg/mL (≈ 2.53 µM); in assay [11], 3.1 µg/mL (≈ 5.23 µM); in assay [12] (A9554, Gn-Ia, CET-S, read-out: Minimum Inhibitory Concentration) it was 0.05 µg/mL (≈ 0.0844 µM). The MIC stood at 3.1 µg/mL (≈ 5.23 µM) in assay [13] (A9867, Gn-Ib, CET-R, read-out: Minimum Inhibitory Concentration) and 3.1 µg/mL (≈ 5.23 µM) in [14] (A209281, Anaerobe, CET-S, read-out: Minimum Inhibitory Concentration).
Take `CC(C)(O/N=C(\C(=O)N[C@@H]1C(=O)N2C(C(=O)[O-])=C(C[n+]3ccccc3)CS[C@H]12)c1csc(N)n1)C(=O)O` [Ceftazidime, ceftazidime, reference compound]: the MIC was 0.2 µg/mL (≈ 0.366 µM) in assay [2]; 5.3 µg/mL (≈ 9.7 µM) in assay [15] (setting [19]); 8.9 µg/mL (≈ 16.3 µM) in assay [15] (setting [20]); 50 µg/mL (≈ 91.5 µM) in [3] (A22695, read-out: Minimum Inhibitory Concentration); 81 µg/mL (≈ 148 µM) in assay [16] (setting [19]); above 100 µg/mL in assay [16] (setting [20]). Besides, the MIC was 6.3 µg/mL (≈ 11.5 µM) in [6] (A20717, read-out: Minimum Inhibitory Concentration); 13 µg/mL (≈ 23.8 µM) in [17] (setting [19]); 16 µg/mL (≈ 29.3 µM) in assay [17] (setting [20]); 0.8 µg/mL (≈ 1.46 µM) in [8] (A15150, read-out: Minimum Inhibitory Concentration); 6.2 µg/mL (≈ 11.3 µM) in [18] (setting [19]); 8.2 µg/mL (≈ 15 µM) in assay [18] (setting [20]). In addition, the MIC in [10] amounted to 2.7 µg/mL (≈ 4.94 µM); in [12] (A9554, read-out: Minimum Inhibitory Concentration), 0.05 µg/mL (≈ 0.0915 µM); in assay [13] (A9867, read-out: Minimum Inhibitory Concentration), 6.3 µg/mL (≈ 11.5 µM); in assay [14] (A209281, read-out: Minimum Inhibitory Concentration), 3.1 µg/mL (≈ 5.67 µM).
